# Measured values as given in patent JP2005255641A, “ベンゾフラン誘導体” (Kyowa Hakko Kogyo Co Ltd, priority 2004, dated 2005).
# Target: T1, recombinant human PDE-IV (HSPDE4A) [組み換えヒトPDE−IV (HSPDE4A)] (Homo sapiens, UniProt P27815)
# T1 construct: made in house; host or cells: Sf9 insect cells
# Experiment: Recombinant human PDE-IV enzyme inhibition test
# Format: biochemical
# Conditions: drug concentration 1 μmol/L; [3H]cAMP 1 μmol/L; 30 °C, 10-30 min; DMSO 1.7%; read-out: enzyme inhibitory activity
# T1 sequence (P27815 whole entry): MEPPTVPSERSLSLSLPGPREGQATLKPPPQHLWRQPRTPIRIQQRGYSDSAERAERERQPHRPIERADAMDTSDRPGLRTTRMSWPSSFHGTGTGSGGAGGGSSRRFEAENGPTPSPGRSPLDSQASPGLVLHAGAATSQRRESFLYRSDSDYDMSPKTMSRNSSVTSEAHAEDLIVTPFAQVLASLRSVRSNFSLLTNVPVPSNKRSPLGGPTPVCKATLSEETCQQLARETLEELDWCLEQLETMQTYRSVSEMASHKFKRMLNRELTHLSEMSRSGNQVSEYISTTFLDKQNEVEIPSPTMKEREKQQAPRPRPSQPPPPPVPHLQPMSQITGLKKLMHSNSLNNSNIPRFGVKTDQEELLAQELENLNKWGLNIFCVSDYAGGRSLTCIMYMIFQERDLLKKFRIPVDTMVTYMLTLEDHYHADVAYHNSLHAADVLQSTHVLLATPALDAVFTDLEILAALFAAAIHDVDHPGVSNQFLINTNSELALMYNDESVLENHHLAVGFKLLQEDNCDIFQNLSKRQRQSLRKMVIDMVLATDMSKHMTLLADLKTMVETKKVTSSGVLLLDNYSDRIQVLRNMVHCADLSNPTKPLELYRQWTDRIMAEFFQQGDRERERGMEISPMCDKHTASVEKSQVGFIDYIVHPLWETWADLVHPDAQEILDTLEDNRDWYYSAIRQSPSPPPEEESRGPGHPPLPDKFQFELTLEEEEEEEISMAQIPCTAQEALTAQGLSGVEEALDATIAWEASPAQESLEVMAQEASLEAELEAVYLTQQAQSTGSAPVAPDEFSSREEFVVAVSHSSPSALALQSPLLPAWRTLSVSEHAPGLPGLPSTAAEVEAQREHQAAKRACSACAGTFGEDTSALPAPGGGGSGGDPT
row,Compound,inhibition [%]
1,"COc1ccc(C2(C#N)CCN(CC(=O)O)CC2)c2cc(C#N)oc12 [化合物99, 2−(4−シアノ−4−(2−シアノ−7−メトキシベンゾフラン−4−イル)ピペリジン−1−イル)酢酸]",≥ 50
2,"COc1ccc(C2(C#N)CCN(CC(=O)O)CC2)c2cc(C(=O)c3ccccc3)oc12 [化合物92, 2−(4−(2−ベンゾイル−7−メトキシベンゾフラン−4−イル)−4−シアノピペリジン−1−イル)酢酸]",≥ 50
3,"COc1ccc(C2(C#N)CCN(CC(=O)O)CC2)c2cc(C(C)=O)oc12 [化合物90, 2−(4−(2−アセチル−7−メトキシベンゾフラン−4−イル)−4−シアノピペリジン−1−イル)酢酸]",≥ 50
4,"COc1ccc(C2(C#N)CCN(CC(=O)O)CC2)c2cc(C(=O)C(C)C)oc12 [化合物91, 2−(4−シアノ−4−(2−イソブチリル−7−メトキシベンゾフラン−4−イル)ピペリジン−1−イル)酢酸]",≥ 50
5,"CCc1cc2c(C3(C#N)CCN(CC(=O)O)CC3)ccc(OC)c2o1 [化合物76, 2−(4−シアノ−4−(2−エチル−7−メトキシベンゾフラン−4−イル)ピペリジン−1−イル)酢酸, 0.3H2O]",≥ 50
6,"COC(=O)c1cc2c(C3(C#N)CCN(CC(=O)O)CC3)ccc(OC)c2o1 [化合物93, 2−(4−シアノ−4−(7−メトキシ−2−メトキシカルボニルベンゾフラン−4−イル)ピペリジン−1−イル)酢酸]",≥ 50

# The next lines start with the values.
row,inhibition [%],Compound
1,≥ 50,"C=Cc1ccc([C@]2(C#N)CC[C@@H](C(=O)O)CC2)c2cc(C(=O)c3ccccc3)oc12 [化合物122, シス−4−(2−ベンゾイル−7−ビニルベンゾフラン−4−イル)−4−シアノシクロヘキサンカルボン酸, 0.4H2O]"
2,≥ 50,"COc1ccc([C@]2(C#N)CC[C@@H](C(=O)O)CC2)c2cc(C3(C)CC3)oc12 [化合物103, シス−4−シアノ−4−(7−メトキシ−2−(1−メチルシクロプロピル)ベンゾフラン−4−イル)シクロヘキサンカルボン酸]"
3,≥ 50,"CCc1ccc([C@]2(C#N)CC[C@@H](C(=O)O)CC2)c2oc(C(=O)c3ccccc3)cc12 [化合物127, シス−4−(2−ベンゾイル−4−エチルベンゾフラン−7−イル)−4−シアノシクロヘキサンカルボン酸]"
4,≥ 50,"COc1ccc([C@]2(C#N)CC[C@@H](C(=O)O)CC2)c2cc(C(=O)N3CCN(CCO)CC3)oc12 [化合物115, シス−4−シアノ−4−(2−(4−(2−ヒドロキシエチル)ピペラジン−1−イルカルボニル)−7−メトキシベンゾフラン−4−イル)シクロヘキサンカルボン酸 塩酸塩]"
5,≥ 50,"COc1ccc([C@]2(C#N)CC[C@@H](C(=O)O)CC2)c2cc(C(=O)c3ccccc3)oc12 [化合物111, シス−4−(2−ベンゾイル−7−メトキシベンゾフラン−4−イル)−4−シアノシクロヘキサンカルボン酸]"
6,≥ 50,"COc1ccc([C@]2(C#N)CC[C@@H](C(=O)O)CC2)c2cc(C(C)(C)O)oc12 [化合物110, シス−4−シアノ−4−(2−(1−ヒドロキシ−1−メチルエチル)−7−メトキシベンゾフラン−4−イル)シクロヘキサンカルボン酸]"
7,≥ 50,"COc1ccc([C@]2(C#N)CC[C@@H](C(=O)O)CC2)c2cc(C3(C(F)(F)F)CC3)oc12 [化合物104, シス−4−シアノ−4−(7−メトキシ−2−(1−トリフルオロメチルシクロプロピル)ベンゾフラン−4−イル)シクロヘキサンカルボン酸]"
8,≥ 50,"COc1ccc([C@]2(C#N)CC[C@@H](C(=O)O)CC2)c2cc(C(=O)N3CCC(N4CCCC4)CC3)oc12 [化合物116, シス−4−シアノ−4−(7−メトキシ−2−(4−(ピロリジン−1−イル)ピペリジノカルボニル)ベンゾフラン−4−イル)シクロヘキサンカルボン酸 塩酸塩]"
9,≥ 50,"COc1ccc([C@]2(C#N)CC[C@@H](C(=O)O)CC2)c2cc(C(C)=O)oc12 [化合物109, シス−4−(2−アセチル−7−メトキシベンゾフラン−4−イル)−4−シアノシクロヘキサンカルボン酸]"
10,≥ 50,"N#C[C@]1(c2ccc(OC(F)F)c3oc(C4CC4)cc32)CC[C@H](C(=O)O)CC1 [化合物106, シス−4−シアノ−4−(2−シクロプロピル−7−ジフルオロメトキシベンゾフラン−4−イル)シクロヘキサンカルボン酸, 0.2H2O]"
11,≥ 50,"COc1ccc([C@]2(C#N)CC[C@@H](C(=O)O)CC2)c2cc(C(=O)N3CCN(C)CC3)oc12 [化合物114, シス−4−シアノ−4−(7−メトキシ−2−(4−メチルピペラジン−1−イルカルボニル)ベンゾフラン−4−イル)シクロヘキサンカルボン酸 塩酸塩]"
12,≥ 50,"CCc1cc2c(o1)c(OC)ccc2[C@]1(C#N)CC[C@@H](C(=O)O)CC1 [化合物101, シス−4−シアノ−4−(2−エチル−7−メトキシベンゾフラン−4−イル)シクロヘキサンカルボン酸]"
13,≥ 50,"CC1(c2cc3c(o2)c(OC(F)F)ccc3[C@]2(C#N)CC[C@@H](C(=O)O)CC2)CC1 [化合物107, シス−4−シアノ−4−(7−ジフルオロメトキシ−2−(1−メチルシクロプロピル)ベンゾフラン−4−イル)シクロヘキサンカルボン酸]"
14,≥ 50,"COc1ccc([C@]2(C#N)CC[C@@H](C(=O)O)CC2)c2cc(C(=O)c3cc[n+]([O-])cc3)oc12 [化合物113, シス−4−シアノ−4−(2−(イソニコチノイル−1−オキシド)−7−メトキシベンゾフラン−4−イル)シクロヘキサンカルボン酸, 0.2H2O]"
15,≥ 50,"COc1ccc([C@]2(C#N)CC[C@@H](C(=O)O)CC2)c2cc(C(C)O)oc12 (some centres unmarked) [化合物108, シス−4−シアノ−4−(2−(1−ヒドロキシエチル)−7−メトキシベンゾフラン−4−イル)シクロヘキサンカルボン酸]"
16,≥ 50,"C=Cc1ccc([C@]2(C#N)CC[C@@H](C(=O)O)CC2)c2oc(C(=O)c3ccccc3)cc12 [化合物126, シス−4−(2−ベンゾイル−4−ビニルベンゾフラン−7−イル)−4−シアノシクロヘキサンカルボン酸]"
17,≥ 50,"CCc1ccc([C@]2(C#N)CC[C@@H](C(=O)O)CC2)c2cc(C(=O)c3ccccc3)oc12 [化合物123, シス−4−(2−ベンゾイル−7−エチルベンゾフラン−4−イル)−4−シアノシクロヘキサンカルボン酸]"
18,≥ 50,"COc1ccc([C@]2(C#N)CC[C@@H](C(=O)O)CC2)c2oc(C(=O)c3ccccc3)cc12 [化合物124, シス−4−(2−ベンゾイル−4−メトキシベンゾフラン−7−イル)−4−シアノシクロヘキサンカルボン酸]"
19,≥ 50,"COc1ccc([C@]2(C#N)CC[C@@H](C(=O)O)CC2)c2cc(C(=O)c3ccncc3)oc12 [化合物112, シス−4−シアノ−4−(2−イソニコチノイル−7−メトキシベンゾフラン−4−イル)シクロヘキサンカルボン酸]"
20,≥ 50,"COc1ccc([C@]2(C#N)CC[C@@H](C(=O)O)CC2)c2cc(C#N)oc12 [化合物121, シス−4−シアノ−4−(2−シアノ−7−メトキシベンゾフラン−4−イル)シクロヘキサンカルボン酸]"

# Same assay, conditions: read-out: enzyme inhibitory activity
row,Compound,inhibition at 1 µM [%]
1,"COc1ccc(C2(C#N)CCN(CC(=O)O)CC2)c2c3c(oc12)CCCC3 [化合物100, 2−(4−シアノ−4−(6−メトキシ−1,2,3,4−テトラヒドロジベンゾフラン−9−イル)ピペリジン−1−イル)酢酸 塩酸塩]",≥ 50
2,"COc1ccc(C2(C#N)CCN(CC(=O)O)CC2)c2cc(C3(c4ccccc4)CC3)oc12 [化合物88, 2−(4−シアノ−4−(7−メトキシ−2−(1−フェニルシクロプロピル)ベンゾフラン−4−イル)ピペリジン−1−イル)酢酸 塩酸塩]",≥ 50
3,"COc1ccc(C2(C#N)CCN(CC(=O)O)CC2)c2cc(C3CC3C)oc12 (centres unmarked) [化合物84, 2−(4−シアノ−4−(7−メトキシ−2−(2−メチルシクロプロピル)ベンゾフラン−4−イル)ピペリジン−1−イル)酢酸 塩酸塩]",≥ 50
4,"COc1ccc(C2(C#N)CCN(CC(=O)O)CC2)c2cc(C3CCC3)oc12 [化合物82, 2−(4−シアノ−4−(2−シクロブチル−7−メトキシベンゾフラン−4−イル)ピペリジン−1−イル)酢酸 塩酸塩]",≥ 50
5,"COc1ccc(C2(C#N)CCN(CC(=O)O)CC2)c2cc(C(C)C)oc12 [化合物77, 2−(4−シアノ−4−(2−イソプロピル−7−メトキシベンゾフラン−4−イル)ピペリジン−1−イル)酢酸 塩酸塩]",≥ 50
6,"COc1ccc(C2(C#N)CCN(CC(=O)O)CC2)c2cc(Cc3ccccc3)oc12 [化合物81, 2−(4−(2−ベンジル−7−メトキシベンゾフラン−4−イル)−4−シアノピペリジン−1−イル)酢酸 塩酸塩]",≥ 50
7,"COc1ccc(C2(C#N)CCN(CC(=O)O)CC2)c2cc(C3CC3)oc12 [化合物83, 2−(4−シアノ−4−(2−シクロプロピル−7−メトキシベンゾフラン−4−イル)ピペリジン−1−イル)酢酸 塩酸塩]",≥ 50
8,"COc1ccc(C2(C#N)CCN(CC(=O)O)CC2)c2cc(CC(C)C)oc12 [化合物79, 2−(4−シアノ−4−(2−イソブチル−7−メトキシベンゾフラン−4−イル)ピペリジン−1−イル)酢酸 塩酸塩]",≥ 50
9,"COc1ccc(C2(C#N)CCN(CC(=O)O)CC2)c2cc(C3(C)CC3)oc12 [化合物87, 2−(4−シアノ−4−(7−メトキシ−2−(1−メチルシクロプロピル)ベンゾフラン−4−イル)ピペリジン−1−イル)酢酸 塩酸塩]",≥ 50
10,"N#CC1(c2ccc(OC(F)F)c3oc(C4CC4)cc23)CCN(CC(=O)O)CC1 [化合物89, 2−(4−シアノ−4−(2−シクロプロピル−7−ジフルオロメトキシベンゾフラン−4−イル)ピペリジン−1−イル)酢酸 塩酸塩]",≥ 50
11,"COc1ccc(C2(C#N)CCN(CC(=O)O)CC2)c2cc(C(C)(C)C)oc12 [化合物78, 2−(4−(2−tert−ブチル−7−メトキシベンゾフラン−4−イル)−4−シアノピペリジン−1−イル)酢酸 塩酸塩]",≥ 50
12,"COc1ccc(C2(C#N)CCN(CC(=O)O)CC2)c2cc(CC(C)(C)C)oc12 [化合物80, 2−(4−(7−メトキシ−2−ネオペンチルベンゾフラン−4−イル)−4−シアノピペリジン−1−イル)酢酸 塩酸塩]",≥ 50
